Results on 37 compounds are retold here after patent US8604061B2, “2-aminooxazolines as TAAR1 ligands” (Hoffmann-La Roche Inc., priority 2007, dated 2013).

pKi: −log10 of the molar value.

In one assay the target is TAAR1 (Mus musculus, UniProt Q923Y8). As to the kind of experiment: TAAR1 radioligand binding, membranes of stably transfected HEK293 cells (mouse).
Conditions: not given
The procedure:
For the construction of expression plasmids the coding sequences of human, rat and mouse TAAR 1 were amplified from genomic DNA essentially as described by Lindemann et al.. The Expand High Fidelity PCR System (Roche Diagnostics) was used with 1.5 mM Mg^2+ and purified PCR products were cloned into pCR2.1-TOPO cloning vector (Invitrogen) following the instructions of the manufacturer. PCR products were subcloned into the pIRESneo2 vector (BD Clontech, Palo Alto, Calif.), and expression vectors were sequence verified before introduction in cell lines.
HEK293 cells (ATCC #CRL-1573) were cultured essentially as described Lindemann et al. (2005). For the generation of stably transfected cell lines HEK293 cells were transfected with the pIRESneo2 expression plasmids containing the TAAR coding sequences (described above) with Lipofectamine 2000 (Invitrogen) according to the instructions of the manufacturer, and 24 hrs post transfection the culture medium was supplemented with 1 mg/ml G418 (Sigma, Buchs, Switzerland). After a culture period of about 10 d clones were isolated, expanded and tested for responsiveness to trace amines (all compounds purchased from Sigma) with the cAMP Biotrak Enzyme immunoassay (EIA) System (Amersham) following the non-acetylation EIA procedure provided by the manufacturer.
Cells at confluence were rinsed with ice-cold phosphate buffered saline without Ca^2+ and Mg^2+ containing 10 mM EDTA and pelleted by centrifugation at 1000 rpm for 5 min at 4° C. The pellet was then washed twice with ice-cold phosphate buffered saline and cell pellet was frozen immediately by immersion in liquid nitrogen and stored until use at −80° C. Cell pellet was then suspended in 20 ml HEPES-NaOH (20 mM), pH 7.4 containing 10 mM EDTA, and homogenized with a Polytron (PT 3000, Kinematica) at 10,000 rpm for 10 s. The homogenate was centrifuged at 48,000×g for 30 min at 4° C. and the pellet resuspended in 20 ml HEPES-NaOH (20 mM), pH 7.4 containing 0.1 mM EDTA (buffer A), and homogenized with a Polytron at 10,000 rpm for 10 s. The homogenate was then centrifuged at 48,000×g for 30 min at 4° C. and the pellet resuspended in 20 ml buffer A, and homogenized with a Polytron at 10,000 rpm for 10 s. Protein concentration was determined by the method of Pierce (Rockford, Ill.). The homogenate was then centrifuged at 48,000×g for 10 min at 4° C., resuspended in HEPES-NaOH (20 mM), pH 7.0 including MgCl2 (10 mM) and […] homogenized with a Polytron at 10,000 rpm for 10 s.
Binding assay was performed at 4° C. in a final volume of 1 ml, and with an incubation time of 30 min. […] Non-specific binding was defined as the amount of [^3H]-rac-2-(1,2,3,4-tetrahydro-1-naphthyl)-2-imidazoline bound in the presence of the appropriate unlabelled ligand (10 μM). Competing ligands were tested in a wide range of concentrations (10 pM-30 μM). […] Each experiment was performed in duplicate. All incubations were terminated by rapid filtration through UniFilter-96 plates (Packard Instrument Company) and glass filter GF/C, pre-soaked for at least 2 h in polyethylenimine 0.3%, and using a Filtermate 96 Cell Harvester (Packard Instrument Company). The tubes and filters were then washed 3 times with 1 ml aliquots of cold buffer B. Filters were not dried and soaked in Ultima gold (45 μl/well, Packard Instrument Company) and bound radioactivity was counted by a TopCount Microplate Scintillation Counter (Packard Instrument Company).
By pKi is commonly meant the Ki on a negative log10 scale, so that one unit is a factor of ten. A high value points to a small Ki. `NC1=NC(c2cc(Cl)cc(Cl)c2)CO1` (racemic) [Example 189, (RS)-4-(3,5-Dichloro-phenyl)-4,5-dihydro-oxazol-2-ylamine] gave a pKi of 9.10.
Same read-out and setting: in the case of `NC1=N[C@@H](c2ccc(F)cc2F)CO1` [37b (S), (S)-4-(2,4-Difluoro-phenyl)-4,5-dihydro-oxazol-2-ylamine] it was 8.06; in that of `NC1=NC(c2ccc(Br)cc2C(F)(F)F)CO1` (racemic) [Example 302, (RS)-4-(4-Bromo-2-trifluoromethyl-phenyl)-4,5-dihydro-oxazol-2-ylamine], 8.77; in that of `COc1ccc(C2COC(N)=N2)cc1Cl` (racemic) [Example 36, (RS)-4-(3-Chloro-4-methoxyphenyl)-4,5-dihydro-oxazol-2-ylamine], 8.47.
As for `NC1=NC(c2cccc(F)c2C(F)(F)F)CO1` (racemic) [Example 371, (RS)-4-(3-Fluoro-2-trifluoromethyl-phenyl)-4,5-dihydro-oxazol-2-ylamine], the pKi was 8.02.
In turn, `NC1=NC(c2cccc(Cl)c2F)CO1` (racemic) [Example 18, (RS)-4-(3-Chloro-2-fluoro-phenyl)-4,5-dihydro-oxazol-2-ylamine] had a negative-log Ki (pKi) of 8.66.
As for `NC1=NC(c2cccc3ccccc23)CO1` (racemic) [Example 34, (RS)-4-Naphthalen-1-yl-4,5-dihydro-oxazol-2-ylamine], the pKi was 8.96.
Same read-out and setting: the same measure for `NC1=NC(c2cc(Cl)c(Cl)cc2C(F)(F)F)CO1` (racemic) [Example 234, (RS)-4-(4,5-Dichloro-2-trifluoromethyl-phenyl)-4,5-dihydro-oxazol-2-ylamine]: 8.03.
For the compound `NC1=NC(c2ccc3c(c2)OCCO3)CO1` (racemic) [Example 32, (RS)-4-(2,3-Dihydro-benzo[1,4]dioxin-6-yl)-4,5-dihydro-oxazol-2-ylamine], the pKi is 8.54.

Still in this assay, the particulars now being: mouse/rat; cell not marked 'rat'; radioligand [3H]-rac-2-(1,2,3,4-tetrahydro-1-naphthyl)-2-imidazoline, 4° C.; read-out: Ki (μM) mouse/rat.
Regarding `CC1(c2cc(F)c(F)cc2F)COC(N)=N1` (racemic) [Example 251, (RS)-4-Methyl-4-(2,4,5-trifluoro-phenyl)-4,5-dihydro-oxazol-2-ylamine], the Ki came out at 0.0086 µM.
As for `CC1(c2ccc(F)c(F)c2F)COC(N)=N1` (racemic) [Example 269, (RS)-4-Methyl-4-(2,3,4-trifluoro-phenyl)-4,5-dihydro-oxazol-2-ylamine], the Ki stood at 0.0083 µM.
Same read-out and setting: the same measure for `CC[C@H](C[C@H]1COC(N)=N1)c1ccccc1` [Example 293, (S)-4-((R)-2-Phenyl-butyl)-4,5-dihydro-oxazol-2-ylamine]: 0.0062 µM; for `NC1=N[C@@H](CCc2ccc(C(F)(F)F)c(F)c2)CO1` [Example 137, (S)-4-[2-(3-Fluoro-4-trifluoromethyl-phenyl)-ethyl]-4,5-dihydro-oxazol-2-ylamine]: 0.0025 µM.
Regarding `NC1=N[C@@H](CCc2ccc(Cl)c(C(F)(F)F)c2)CO1` [Example 144, (S)-4-[2-(4-Chloro-3-trifluoromethyl-phenyl)-ethyl]-4,5-dihydro-oxazol-2-ylamine], the Ki amounted to 0.0012 µM.
For `Cc1ccc(F)c(CC2COC(N)=N2)c1` (racemic) [Example 73, (RS)-4-(2-Fluoro-5-methyl-benzyl)-4,5-dihydro-oxazol-2-ylamine], the Ki was found to be 0.0089 µM.
For the compound `Cc1cc(C2(C)COC(N)=N2)c(F)cc1Cl` (racemic) [Example 274, (RS)-4-(4-Chloro-2-fluoro-5-methyl-phenyl)-4-methyl-4,5-dihydro-oxazol-2-ylamine], the Ki came out at 0.0011 µM.
In the case of `NC1=N[C@@H](c2cc(F)ccc2F)CO1` [Example 101, (S)-4-(2,5-Difluoro-phenyl)-4,5-dihydro-oxazol-2-ylamine], the Ki was 0.0034 µM.
Same read-out and setting: the same measure for `NC1=N[C@@H](CCc2ccc(F)c(F)c2)CO1` [Example 89, (S)-4-[2-(3,4-Difluoro-phenyl)-ethyl]-4,5-dihydro-oxazol-2-ylamine]: 0.0013 µM.
On the same count and under the same terms, in the case of `NC1=N[C@@H](CCc2ccccc2F)CO1` [Example 111, (S)-4-[2-(2-Fluoro-phenyl)-ethyl]-4,5-dihydro-oxazol-2-ylamine] it was 0.0011 µM.
Same read-out and setting: in the case of `C[C@]1(c2cc(F)c(F)c(F)c2)COC(N)=N1` [Example 306, (S)-4-Methyl-4-(3,4,5-trifluoro-phenyl)-4,5-dihydro-oxazol-2-ylamine] it was 0.0027 µM; in that of `CCC(C[C@H]1COC(N)=N1)c1ccc(C(F)(F)F)cc1` (stereo partly drawn) [Example 184, (S)-4-[2-(4-Trifluoromethyl-phenyl)-butyl]-4,5-dihydro-oxazol-2-ylamine], 0.0063 µM.
`NC1=N[C@@H](c2ccc(Br)c(Cl)c2)CO1` [Example 330, (+)-(S)-4-(4-Bromo-3-chloro-phenyl)-4,5-dihydro-oxazol-2-ylamine]: the Ki turned out to be 0.0008 µM.
On the same count and under the same terms, in the case of `Cc1cc(F)ccc1[C@H]1COC(N)=N1` [Example 348, (+)-(S)-4-(4-Fluoro-2-methyl-phenyl)-4,5-dihydro-oxazol-2-ylamine] it was 0.0036 µM; in that of `NC1=N[C@@H](c2cccc(Cl)c2Cl)CO1` [Example 168, (S)-4-(2,3-Dichloro-phenyl)-4,5-dihydro-oxazol-2-ylamine], 0.0006 µM.
Same read-out and setting: the same measure for `CC(Cc1ccccc1)[C@H]1COC(N)=N1` (stereo partly drawn) [Example 154, (S)-4-(1-Methyl-2-phenyl-ethyl)-4,5-dihydro-oxazol-2-ylamine]: 0.0034 µM; for `CC1(CCc2ccccc2)COC(N)=N1` (racemic) [Example 78, (RS)-4-Methyl-4-phenethyl-4,5-dihydro-oxazol-2-ylamine]: 0.0064 µM; for `NC1=N[C@@H](c2ccccc2Cl)CO1` [Example 4, (S)-4-(2-Chloro-phenyl)-4,5-dihydro-oxazol-2-ylamine]: 0.0012 µM.
Consider `NC1=N[C@@H](CCc2ccc(F)c(OC(F)(F)F)c2)CO1` [Example 146, (S)-4-[2-(4-Fluoro-3-trifluoromethoxy-phenyl)-ethyl]-4,5-dihydro-oxazol-2-ylamine], for which the Ki came to 0.0041 µM.
On to `CC[C@]1(c2ccc(Cl)c(Cl)c2)COC(N)=N1` [Example 328, (S)-4-(3,4-Dichloro-phenyl)-4-ethyl-4,5-dihydro-oxazol-2-ylamine], for which the Ki came to 0.0052 µM.
Still for that read-out and setting: in the case of `C[C@]1(c2ccc(F)cc2F)COC(N)=N1` [Example 206, (S)-4-(2,4-Difluoro-phenyl)-4-methyl-4,5-dihydro-oxazol-2-ylamine] it was 0.0032 µM; in that of `C[C@]1(CCc2ccc(Cl)cc2Cl)COC(N)=N1` [Example 304, (S)-4-[2-(2,4-Dichloro-phenyl)-ethyl]-4-methyl-4,5-dihydro-oxazol-2-ylamine], 0.0033 µM; in that of `CCC(C[C@H]1COC(N)=N1)c1ccccc1F` (stereo partly drawn) [Example 223, (S)-4-[2-(2-Fluoro-phenyl)-butyl]-4,5-dihydro-oxazol-2-ylamine], 0.0059 µM.
On the same count and under the same terms, the same measure for `NC1=N[C@@H](CCc2ccc(Cl)c(Cl)c2)CO1` [Example 127, (S)-4-[2-(3,4-Dichloro-phenyl)-ethyl]-4,5-dihydro-oxazol-2-ylamine]: 0.0003 µM; for `NC1=N[C@@H](CCc2ccccc2Cl)CO1` [Example 267, (S)-4-[2-(2-Chloro-phenyl)-ethyl]-4,5-dihydro-oxazol-2-ylamine]: 0.0011 µM; for `CCC(C[C@H]1COC(N)=N1)c1ccc(Cl)c(Cl)c1` (stereo partly drawn) [Example 222, (S)-4-[2-(3,4-Dichloro-phenyl)-butyl]-4,5-dihydro-oxazol-2-ylamine]: 0.0048 µM.
Same read-out and setting: in the case of `NC1=N[C@@H](Cc2ccccc2Cl)CO1` [Example 60, (S)-4-(2-Chloro-benzyl)-4,5-dihydro-oxazol-2-ylamine] it was 0.0047 µM; in that of `CC1(c2cc(F)c(F)c(F)c2)COC(N)=N1` (racemic) [Example 273, (RS)-4-Methyl-4-(3,4,5-trifluoro-phenyl)-4,5-dihydro-oxazol-2-ylamine], 0.0095 µM.
